IC50 data for 14 molecules are collected here from patent publication US20250215030A1, “STAT MODULATORS AND USES THEREOF” (Recludix Pharma, Inc., priority 2022, published 2025).

pIC50: −log10 of the molar value.

The target of test [1] is T1, Recombinant STAT6 protein (STAT6(W123-T658)) (Homo sapiens, UniProt P42226).
T1 construct: STAT6(W123-T658)
T1 sequence (P42226 123-658): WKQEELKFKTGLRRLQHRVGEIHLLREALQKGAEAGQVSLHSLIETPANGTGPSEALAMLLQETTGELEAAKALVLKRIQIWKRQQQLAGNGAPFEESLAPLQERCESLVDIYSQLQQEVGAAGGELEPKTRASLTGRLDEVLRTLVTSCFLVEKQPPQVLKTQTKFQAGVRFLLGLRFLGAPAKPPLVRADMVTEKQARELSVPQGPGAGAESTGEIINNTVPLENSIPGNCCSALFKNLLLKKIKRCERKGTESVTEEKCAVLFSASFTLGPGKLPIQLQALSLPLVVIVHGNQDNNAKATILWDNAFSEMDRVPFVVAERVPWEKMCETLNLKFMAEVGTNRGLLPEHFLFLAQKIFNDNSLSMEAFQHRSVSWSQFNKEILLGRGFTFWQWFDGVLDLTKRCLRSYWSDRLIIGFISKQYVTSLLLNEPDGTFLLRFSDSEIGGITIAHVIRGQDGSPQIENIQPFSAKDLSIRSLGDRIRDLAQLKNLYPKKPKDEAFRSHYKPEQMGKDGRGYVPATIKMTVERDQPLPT
The test is described as follows: STAT6 Fluorescence Polarization (FP) Assay. The format is binding. The note with it: STAT6(W123-T658) 250 nM, probe 5-FAM-ApYKPFQDLI-NH2 2 nM, 45-minute incubation. Put shortly:
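STAT6 (W123-T658) at 250 nM mixed with 2 nM 5-FAM-ApYKPFQDLI-NH2 probe in HEPES pH 7.4 buffer with DTT and Tween 20, 1% DMSO final. Polarization read after 45 min at room temperature; IC50 by nonlinear regression of mP versus log concentration, reported in bins A–D.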

Test [2] addresses T2, Recombinant STAT3 protein (STAT3(G127-I722)) (Homo sapiens, UniProt P40763).
T2 construct: STAT3(G127-I722)
The test is described as follows: STAT3 Fluorescence Polarization (FP) Assay. It is filed as binding. The note with it: STAT3(G127-I722) 25 nM, probe 5-FAM-GpYLPQTV-NH2 2 nM, 45-minute incubation. A digest of the protocol: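 STAT3(G127-I722) at 25 nM and 5-FAM-GpYLPQTV-NH2 probe at 2 nM in HEPES pH 7.4 buffer with NaCl, EDTA, Tween 20, DTT; 1% DMSO. FP read after 45 min at room temperature; IC50 by nonlinear regression of mP vs log concentration, binned A ≤100 nM to D >10 μM.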

T2 sequence (P40763 127-722, species assumed): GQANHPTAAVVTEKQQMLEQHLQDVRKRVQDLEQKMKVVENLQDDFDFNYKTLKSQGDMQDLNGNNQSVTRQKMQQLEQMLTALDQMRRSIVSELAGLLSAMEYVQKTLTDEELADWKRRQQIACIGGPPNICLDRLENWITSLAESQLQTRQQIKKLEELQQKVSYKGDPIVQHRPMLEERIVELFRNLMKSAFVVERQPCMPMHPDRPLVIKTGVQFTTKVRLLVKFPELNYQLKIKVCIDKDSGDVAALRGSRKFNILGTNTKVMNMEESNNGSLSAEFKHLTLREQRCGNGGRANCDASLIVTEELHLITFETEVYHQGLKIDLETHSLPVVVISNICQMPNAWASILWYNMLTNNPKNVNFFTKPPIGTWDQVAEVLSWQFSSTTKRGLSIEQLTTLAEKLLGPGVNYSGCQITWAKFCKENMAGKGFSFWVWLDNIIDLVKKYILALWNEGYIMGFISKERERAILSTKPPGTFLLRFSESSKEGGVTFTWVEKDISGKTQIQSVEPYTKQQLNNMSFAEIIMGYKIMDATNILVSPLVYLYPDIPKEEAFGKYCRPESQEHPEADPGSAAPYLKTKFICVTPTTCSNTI

`O=C(N[C@H]1C[C@@H]2C[C@@H]2C[C@H]2CC[C@@H](C(=O)N3CC(N4CCS(=O)(=O)CC4)C3)N2C1=O)c1cc2cc(C(F)P(=O)(O)O)ccc2s1` (stereo partly drawn) [Example 301, ((2-(((3S,6S,7aS,8aR,9aR)-3-(3-(1,1-dioxidothiomorpholino)azetidine-1-carbonyl)-5-oxodecahydro-1H-cyclopropa[d]pyrrolo[1,2-a]azocin-6-yl)carbamoyl)benzo[b]thiophen-5-yl)fluoromethyl)phosphonic acid]: the negative-log IC50 (pIC50) in test [1] was 4.52 to 5.52; in test [2], 6.00 to 7.00.
The like results for `O=C(N[C@H]1C[C@H]2C[C@H]2C[C@H]2CC[C@@H](C(=O)N3CC(N4CCS(=O)(=O)CC4)C3)N2C1=O)c1cc2cc(C(F)P(=O)(O)O)ccc2s1` (stereo partly shown) [Example 302] were, in that order, 4.52 to 5.52 and 6.00 to 7.00.
On the same counts, the results for `O=C(N[C@H]1C[C@@H]2C[C@@H]2C[C@H]2CC[C@@H](C(=O)N3CC(c4cnccc4F)C3)N2C1=O)c1cc2cc(C(F)(F)P(=O)(O)O)ccc2s1` [Example 303, (difluoro(2-(((3S,6S,7aS,8aR,9aR)-3-(3-(4-fluoropyridin-3-yl)azetidine-1-carbonyl)-5-oxodecahydro-1H-cyclopropa[d]pyrrolo[1,2-a]azocin-6-yl)carbamoyl)benzo[b]thiophen-5-yl)methyl)phosphonic acid] are 5.52 to 6.52 and more than 7.00.
The like results for `Cn1cnnc1C1CN(C(=O)[C@@H]2CC[C@@H]3C[C@H]4C[C@H]4C[C@H](NC(=O)c4cc5cc(C(F)P(=O)(O)O)ccc5s4)C(=O)N32)C1` (stereo partly drawn) [Example 304, (fluoro(2-(((3S,6S,7aS,8aR,9aR)-3-(3-(4-methyl-4H-1,2,4-triazol-3-yl)azetidine-1-carbonyl)-5-oxodecahydro-1H-cyclopropa[d]pyrrolo[1,2-a]azocin-6-yl)carbamoyl)benzo[b]thiophen-5-yl)methyl)phosphonic acid] were, in that order, 4.52 to 5.52 and more than 7.00.
As for `O=C(N[C@H]1C[C@@H]2C[C@@H]2C[C@H]2CC[C@@H](C(=O)N3CC(c4ncccn4)C3)N2C1=O)c1cc2cc(C(F)P(=O)(O)O)ccc2s1` (stereo partly drawn) [Example 305, (fluoro(2-(((3S,6S,7aS,8aR,9aR)-5-oxo-3-(3-(pyrimidin-2-yl)azetidine-1-carbonyl)decahydro-1H-cyclopropa[d]pyrrolo[1,2-a]azocin-6-yl)carbamoyl)benzo[b]thiophen-5-yl)methyl)phosphonic acid], the pIC50 in test [1] is 4.52 to 5.52; in test [2], 6.00 to 7.00.
The like results for `O=C(N[C@H]1C[C@@H]2C[C@@H]2C[C@H]2CC[C@@H](C(=O)N3CC(c4ccon4)C3)N2C1=O)c1cc2cc(C(F)P(=O)(O)O)ccc2s1` (stereo partly drawn) [Example 312, (fluoro(2-(((3S,6S,7aS,8aR,9aR)-3-(3-(isoxazol-3-yl)azetidine-1-carbonyl)-5-oxodecahydro-1H-cyclopropa[d]pyrrolo[1,2-a]azocin-6-yl)carbamoyl)benzo[b]thiophen-5-yl)methyl)phosphonic acid] were, in that order, 4.52 to 5.52 and more than 7.00.
The like results for `O=C(N[C@H]1C[C@H]2C[C@H]2C[C@H]2CC[C@@H](C(=O)N3CC[C@H](c4cnccc4F)C3)N2C1=O)c1cc2cc(C(F)P(=O)(O)O)ccc2s1` (stereo partly drawn) [Example 313, (fluoro(2-(((3S,6S,7aR,8aS,9aR)-3-((R)-3-(4-fluoropyridin-3-yl)pyrrolidine-1-carbonyl)-5-oxodecahydro-1H-cyclopropa[d]pyrrolo[1,2-a]azocin-6-yl)carbamoyl)benzo[b]thiophen-5-yl)methyl)phosphonic acid] were, in that order, 5.52 to 6.52 and more than 7.00.
On the same counts, the results for `O=C(N[C@H]1C[C@H]2C[C@H]2C[C@H]2CC[C@@H](C(=O)N3CC(c4ncccn4)C3)N2C1=O)c1cc2cc(C(F)P(=O)(O)O)ccc2s1` (stereo partly drawn) [Example 317, (fluoro(2-(((3S,6S,7aR,8aS,9aR)-5-oxo-3-(3-(pyrimidin-2-yl)azetidine-1-carbonyl)decahydro-1H-cyclopropa[d]pyrrolo[1,2-a]azocin-6-yl)carbamoyl)benzo[b]thiophen-5-yl)methyl)phosphonic acid] are 4.52 to 5.52 and more than 7.00.
In the case of `COc1ccncc1C1CN(C(=O)[C@@H]2CC[C@@H]3C[C@@H]4C[C@@H]4C[C@H](NC(=O)c4cc5cc(C(F)P(=O)(O)O)ccc5s4)C(=O)N32)C1` (stereo partly drawn) [Example 318, (fluoro(2-(((3S,6S,7aR,8aS,9aR)-3-(3-(4-methoxypyridin-3-yl)azetidine-1-carbonyl)-5-oxodecahydro-1H-cyclopropa[d]pyrrolo[1,2-a]azocin-6-yl)carbamoyl)benzo[b]thiophen-5-yl)methyl)phosphonic acid], the results for the pIC50 in test [1] and in test [2] were 4.52 to 5.52 and more than 7.00, respectively.
As for `Cc1ccncc1C1CN(C(=O)[C@@H]2CC[C@@H]3C[C@@H]4C[C@@H]4C[C@H](NC(=O)c4cc5cc(C(F)P(=O)(O)O)ccc5s4)C(=O)N32)C1` (stereo partly drawn) [Example 320, (fluoro(2-(((3S,6S,7aR,8aS,9aR)-3-(3-(4-methylpyridin-3-yl)azetidine-1-carbonyl)-5-oxodecahydro-1H-cyclopropa[d]pyrrolo[1,2-a]azocin-6-yl)carbamoyl)benzo[b]thiophen-5-yl)methyl)phosphonic acid], the negative logarithm of the IC50 (pIC50) is 4.52 to 5.52 in test [1] and more than 7.00 in test [2].
On the same counts, the results for `O=C(N[C@H]1C[C@@H]2C[C@@H]2C[C@H]2CC[C@@H](C(=O)N3CC(c4ncco4)C3)N2C1=O)c1cc2cc(C(F)P(=O)(O)O)ccc2s1` (stereo partly drawn) [Example 322, (fluoro(2-(((3S,6S,7aS,8aR,9aR)-3-(3-(oxazol-2-yl)azetidine-1-carbonyl)-5-oxodecahydro-1H-cyclopropa[d]pyrrolo[1,2-a]azocin-6-yl)carbamoyl)benzo[b]thiophen-5-yl)methyl)phosphonic acid] are 4.52 to 5.52 and more than 7.00.
`Cc1cnc(C2CN(C(=O)[C@@H]3CC[C@@H]4C[C@H]5C[C@H]5C[C@H](NC(=O)c5cc6cc(C(F)P(=O)(O)O)ccc6s5)C(=O)N43)C2)o1` (stereo partly drawn) [Example 324, (fluoro(2-(((3S,6S,7aS,8aR,9aR)-3-(3-(5-methyloxazol-2-yl)azetidine-1-carbonyl)-5-oxodecahydro-1H-cyclopropa[d]pyrrolo[1,2-a]azocin-6-yl)carbamoyl)benzo[b]thiophen-5-yl)methyl)phosphonic acid]: the pIC50 in test [1] was 4.52 to 5.52; in test [2], 6.00 to 7.00.
The like results for `Cc1noc(C2CN(C(=O)[C@@H]3CC[C@@H]4C[C@H]5C[C@H]5C[C@H](NC(=O)c5cc6cc(C(F)P(=O)(O)O)ccc6s5)C(=O)N43)C2)n1` (stereo partly drawn) [Example 326, (fluoro(2-(((3S,6S,7aS,8aR,9aR)-3-(3-(3-methyl-1,2,4-oxadiazol-5-yl)azetidine-1-carbonyl)-5-oxodecahydro-1H-cyclopropa[d]pyrrolo[1,2-a]azocin-6-yl)carbamoyl)benzo[b]thiophen-5-yl)methyl)phosphonic acid] were, in that order, 4.52 to 5.52 and 6.00 to 7.00.
The like results for `Cc1nnc(C2CN(C(=O)[C@@H]3CC[C@@H]4C[C@H]5C[C@H]5C[C@H](NC(=O)c5cc6cc(C(F)P(=O)(O)O)ccc6s5)C(=O)N43)C2)o1` (stereo partly drawn) [Example 327, (fluoro(2-(((3S,6S,7aS,8aR,9aR)-3-(3-(5-methyl-1,3,4-oxadiazol-2-yl)azetidine-1-carbonyl)-5-oxodecahydro-1H-cyclopropa[d]pyrrolo[1,2-a]azocin-6-yl)carbamoyl)benzo[b]thiophen-5-yl)methyl)phosphonic acid] were, in that order, 4.52 to 5.52 and 6.00 to 7.00.
